Laboratory results taken from US4728732A, “C-3'acylsulfonamido cephalosporin analogs” (American Home Products Corporation, priority 1985, dated 1988).
≈ marks a conversion by molar mass, not a printed value.

Experiments:
Assay type in all cases: cell-based
[1] = tested on: Escherichia coli ATCC 25922; test: MIC, procedure A (two-fold dilutions in broth, Microtiter plate); conditions: ATCC25922
Description: (§1) The compounds of the invention are tested for their antibacterial activity. The test can be carried out in two ways:
(§2) A. The organisms used in the test comprise the following:
(§3) Staphylococcus aureus (penicillin-sensitive and resistant), Pseudomonas aeruginosa, Escherichia coli, […] pneumoniae, Bordetella bronchiseptica, Proteus vulgaris, P. mirabilis, Acinetobacter calcoaceticus.
(§4) Test organisms may be added or deleted in order to reflect current clinical patterns of antibiotic susceptibility or shifts in pathogenic potential.
(§5) Stock solution of appropriate medium (e.g. Mueller-Hinton Broth) is sterilized. Starting at a predetermined concentration (e.g. 250 μg/ml), two-fold dilutions are made with the Dynatech Automatic Diluter in a Microtiter plate of 8 rows of 12 wells each in which 11 wells in each row contain 50 μl of medium (e.g. Mueller-Hinton Broth) and the 12th well contains in 100 μl an aliquot of the compound to be tested. The diluted plates are inoculated using the Dynatech Automatic Inoculator which delivers the final inoculum (e.g. 10^5 cfu/ml of a seven-hour culture which has been incubated at 35° C.).
(§6) Plates are sealed with tape and incubated (e.g. 18 hours at 35° C.).

[2] = tested on: Pseudomonas aeruginosa ATCC 27853; test: as above; conditions: ATCC27853
Description: as §1, §2, §3, §4, §5, §6

[3] = tested on: Proteus vulgaris A 84354 1; test: as above; conditions: A843541
Description: as §1, §2, §3, §4, §5, §6

[4] = tested on: Klebsiella pneunomiae KL-1; test: as above; conditions: KL1
Description: as §1, §2, §3, §4, §5, §6

[5] = tested on: Staphylococcus aureus ATCC 29213; test: as above; conditions: ATCC29213
Description: as §1, §2, §3, §4, §5, §6

[6] = tested on: Enterobacter cloacae ATCC 13047; test: as above; conditions: ATCC13047
Description: as §1, §2, §3, §4, §5, §6

[7] = tested on: Serratia marcescens ATCC 13880; test: as above; conditions: ATCC13880
Description: as §1, §2, §3, §4, §5, §6

[8] = tested on: Streptococcus faecalis ATCC 29212; test: as above; conditions: Enterococcus faecalis, ATCC29212
Description: as §1, §2, §3, §4, §5, §6

[9] = tested on: Escherichia coli ATCC 25922; test: MIC, procedure B (agar, Steers replicating device); conditions: ATCC25922
Description: as §1
(§7) B. The organisms used in the test comprise the following:
as §3, §4
(§8) Organisms are normally grown for 18 hours in Brain Heart Infusion at 35° C. Cultures are adjusted with saline to MacFarland No. 1.5 standard prior to use.
(§9) Stock concentrations (e.g […] or units per ml) are prepared in a suitable vehicle. Two-fold dilutions are made. One ml quantities of each dilution are incorporated in 9 ml of the appropriate agar (e.g. Seed) in sterile Petri plates. The hardened surface is inoculated with test organisms by use of a Steers replicating device. The plates are incubated (e.g. 18 hours at 35° C.) and activity is determined.

[10] = tested on: Pseudomonas aeruginosa ATCC 27853; test: MIC, procedure B (agar, Steers replicating device); conditions: ATCC27853
Description: as §1, §7, §3, §4, §8, §9

[11] = tested on: Proteus vulgaris A 84354 1; test: MIC, procedure B (agar, Steers replicating device); conditions: A843541
Description: as §1, §7, §3, §4, §8, §9

[12] = tested on: Klebsiella pneunomiae KL-1; test: MIC, procedure B (agar, Steers replicating device); conditions: KL1
Description: as §1, §7, §3, §4, §8, §9

[13] = tested on: Staphylococcus aureus ATCC 29213; test: MIC, procedure B (agar, Steers replicating device); conditions: ATCC29213
Description: as §1, §7, §3, §4, §8, §9

[14] = tested on: Enterobacter cloacae ATCC 13047; test: MIC, procedure B (agar, Steers replicating device); conditions: ATCC13047
Description: as §1, §7, §3, §4, §8, §9

[15] = tested on: Serratia marcescens ATCC 13880; test: MIC, procedure B (agar, Steers replicating device); conditions: ATCC13880
Description: as §1, §7, §3, §4, §8, §9

[16] = tested on: Streptococcus faecalis ATCC 29212; test: MIC, procedure B (agar, Steers replicating device); conditions: Enterococcus faecalis, ATCC29212
Description: as §1, §7, §3, §4, §8, §9

SMILES	MIC [1] [µg/mL]	MIC [2] [µg/mL]	MIC [3] [µg/mL]	MIC [4] [µg/mL]	MIC [5] [µg/mL]	MIC [6] [µg/mL]	MIC [7] [µg/mL]	MIC [8] [µg/mL]	MIC [9] [µg/mL]	MIC [10] [µg/mL]	MIC [11] [µg/mL]	MIC [12] [µg/mL]	MIC [13] [µg/mL]	MIC [14] [µg/mL]	MIC [15] [µg/mL]	MIC [16] [µg/mL]
CO/N=C(\C(=O)N[C@@H]1C(=O)N2C(C(=O)OC(C)(C)C)=C(CN3C(=O)c4cscc4S3(=O)=O)CS[C@H]12)c1csc(N)n1 [1 B.]	8 (≈ 12.5 µM)	128 (≈ 200 µM)	4 (≈ 6.24 µM)	4 (≈ 6.24 µM)	32 (≈ 49.9 µM)	64 (≈ 99.9 µM)	32 (≈ 49.9 µM)	256 (≈ 400 µM)	–	–	–	–	–	–	–	–
CO/N=C(\C(=O)N[C@@H]1C(=O)N2C(C(=O)O)=C(CN3C(=O)c4cscc4S3(=O)=O)CS[C@H]12)c1csc(N)n1 [1 C.]	–	–	–	–	–	–	–	–	2 (≈ 3.42 µM)	64 (≈ 109 µM)	0.5 (≈ 0.855 µM)	1 (≈ 1.71 µM)	4 (≈ 6.84 µM)	4 (≈ 6.84 µM)	2 (≈ 3.42 µM)	8 (≈ 13.7 µM)
CO/N=C(\C(=O)N[C@@H]1C(=O)N2C(C(=O)OC(C)(C)C)=C(CN3C(=O)c4ccccc4S3(=O)=O)CS[C@H]12)c1csc(N)n1 [2 B.]	2 (≈ 3.15 µM)	64 (≈ 101 µM)	1 (≈ 1.58 µM)	1 (≈ 1.58 µM)	8 (≈ 12.6 µM)	16 (≈ 25.2 µM)	8 (≈ 12.6 µM)	16 (≈ 25.2 µM)	–	–	–	–	–	–	–	–
CO/N=C(\C(=O)N[C@@H]1C(=O)N2C(C(=O)O)=C(CN3C(=O)c4ccccc4S3(=O)=O)CS[C@H]12)c1csc(N)n1 [2 C.]	–	–	–	–	–	–	–	–	1 (≈ 1.73 µM)	32 (≈ 55.3 µM)	0.5 (≈ 0.864 µM)	0.5 (≈ 0.864 µM)	4 (≈ 6.91 µM)	8 (≈ 13.8 µM)	4 (≈ 6.91 µM)	8 (≈ 13.8 µM)

Now from value to compound:

MIC [1] [µg/mL]	MIC [2] [µg/mL]	MIC [3] [µg/mL]	MIC [4] [µg/mL]	MIC [5] [µg/mL]	MIC [6] [µg/mL]	MIC [7] [µg/mL]	MIC [8] [µg/mL]	MIC [9] [µg/mL]	MIC [10] [µg/mL]	MIC [11] [µg/mL]	MIC [12] [µg/mL]	MIC [13] [µg/mL]	MIC [14] [µg/mL]	MIC [15] [µg/mL]	MIC [16] [µg/mL]	SMILES
4 (≈ 6.29 µM)	256 (≈ 403 µM)	8 (≈ 12.6 µM)	2 (≈ 3.15 µM)	128 (≈ 201 µM)	128 (≈ 201 µM)	8 (≈ 12.6 µM)	256 (≈ 403 µM)	–	–	–	–	–	–	–	–	CO/N=C(\C(=O)N[C@@H]1C(=O)N2C(C(=O)OC(C)(C)C)=C(CN3C(=O)c4cccnc4S3(=O)=O)CS[C@H]12)c1csc(N)n1 [3 B.]
–	–	–	–	–	–	–	–	2 (≈ 3.45 µM)	128 (≈ 221 µM)	2 (≈ 3.45 µM)	1 (≈ 1.73 µM)	32 (≈ 55.2 µM)	16 (≈ 27.6 µM)	2 (≈ 3.45 µM)	128 (≈ 221 µM)	CO/N=C(\C(=O)N[C@@H]1C(=O)N2C(C(=O)O)=C(CN3C(=O)c4cccnc4S3(=O)=O)CS[C@H]12)c1csc(N)n1 [3 C.]
